Laboratory results published in patent publication US20140228407A1, “TETRA-PYRIDINE COMPOUNDS AND COMPOSITION FOR PROTECTING CELLS, TISSUES AND ORGANS AGAINST ISCHEMIA-REPERFUSION INJURY” (YISSUM RESEARCH DEVELOPMENT COMPANY OF THE HEBREW …, priority 2011, published 2014).
“Also recorded” adds a separate entry of the source.

Assays:
[1] = tested on: model of ischemia/reperfusion in the CD rat; assay: Rat model of ischemia/reperfusion, cardiovascular monitoring (blood pressure, heart rate; Phase B); type: in vivo
Protocol: The animals in Phase B were monitored for selected cardiovascular endpoints from at least 15 minutes prior to acute myocardial infarction until at approximately 1 hour post reperfusion. Blood samples for the evaluation of Troponin I were collected from all surviving Phase B animals prior to coronary artery occlusion and at termination. At study termination, the Phase B animals were submitted to necropsy for limited necropsy examinations and infarct analysis.
In Phase B, Compound #6 was administered once on Day 0 via intravenous infusion at dose levels of 0.2 and 2 mg/kg. The doses were administered at a dose volume of 1 mL/kg (0.05 [2 mg/kg] or 0.033 [0.2 mg/kg] mL/kg/minute). Two control groups received the vehicle (saline) or the vehicle for Compound #6 (10% (w/v) 2-hydroxypropyl-beta-cyclodextrin and 100 mM sodium chloride in deionized water) in the same manner as the 2 mg/kg treated group. The vehicles and 2 mg/kg Compound #6 were administered intravenously via a slow infusion starting 3 to 14 minutes prior to reperfusion and continuing for 20 minutes to 20 minutes and 32 seconds, which was approximately 6 to 17 minutes after reperfusion (depending on the infusion start time). The 0.2 mg/kg Compound #6 was administered intravenously via a slow infusion starting 10 minutes prior to reperfusion and continuing for 30 minutes to 30 minutes and 30 seconds, which was approximately 20 minutes after reperfusion. The positive control article, Erythropoietin, was administered at 5000 IU/kg via a bolus intravenous injection. The positive control article dose was administered at a dose volume of 2.5 mL/kg. The positive control was administered via a 3 to 60 second injection at 5 minutes prior to reperfusion.
In Phase B, animals were anesthetized for monitoring of selected cardiovascular parameters. For experimentation, the blood pressure catheter implanted in the carotid artery was attached to an external transducer and data acquisition was started. Blood pressure (systolic, diastolic, and mean arterial) and heart rate (derived from blood pressure) were monitored from at least 15 minutes prior to acute myocardial infarction (AMI) until at least 1 hour after reperfusion. Individual animal cardiovascular data tables are not reported but are maintained in the study file.

[2] = tested on: model of ischemia/reperfusion in the CD rat; assay: Rat model of ischemia/reperfusion, cardiac Troponin I concentration (Phase B); type: in vivo; details: 0.2 and 2.0 mg/kg; prior to termination; not statistically different
Protocol: This study was conducted to evaluate the effects of the Compound #6 on cardiac function, infarct size, and Troponin I levels in a model of ischemia/reperfusion in the CD® (CR1CD® (SD)) rat. Phase A was conducted for toxicity evaluation purposes. In Phase B (the efficacy phase), two treatment groups of eight male rats were administered Compound #6 at dose levels of 0.2 and 2 mg/kg via intravenous infusion following myocardial infarction. The 2 mg/kg dose of Compound #6 was administered intravenously via a slow infusion starting 3 to 14 minutes prior to reperfusion and continuing for 20 minutes to 20 minutes and 32 seconds, which was approximately 6 to 17 minutes after reperfusion (depending on the infusion start time). The 0.2 mg/kg dose of Compound #6 was administered intravenously via a slow infusion starting 10 minutes prior to reperfusion and continuing for 30 minutes to 30 minutes and 30 seconds, which was approximately 20 minutes after reperfusion.
The animals in Phase B were monitored for selected cardiovascular endpoints from at least 15 minutes prior to acute myocardial infarction until at approximately 1 hour post reperfusion. […]
In Phase B, cardiac troponin I evaluations were conducted at 3 to 54 minutes prior to coronary artery occlusion and prior to termination on all animals. […] The samples were stored frozen at −50 to −90° C. until analyzed.

[3] = tested on: neonate rat cardiomyocyte cells; assay: Hypoxia in neonatal rat cardiomyocyte cultures, propidium iodide (PI) staining; type: cell-based; details: after 3.5 hours of reoxygenation
Protocol: Rat hearts (1-2 days old) were sterilely removed and bathed three times in Ca^2+- and Mg^2+-free PBS to remove excess blood cells. The hearts were minced to small fragments and then agitated in a proteolytic enzyme-RDB solution prepared from a fig tree extract as described previously (Brik et al., 1990; Shneyvays et al., 2001). The RDB was diluted 1:200 in PBS at 25° C. for a few cycles of 10 min each. The supernatant suspension containing dissociated cells, to which medium containing 10% horse serum was added, was centrifuged at 500 g for 5 min. After centrifugation, the supernatant phase was discarded, and cells were resuspended in Dulbecco's modified Eagle medium supplemented with 10% heat-inactivated horse serum and 0.5% chick embryo extract. […]
Cultured cardiomyocytes were incubated with propidium iodide (5 μg/ml) (Molecular Probes, Eugene, Oreg.) in PBS for 30 min at 37° C., and propidium iodide (PI) staining was performed by incubating the cells with PI (5 μg/ml) (Molecular Probes, Eugene, Oreg.) in PBS for 30 min at 37° C. in order to differentiate between dead and survived cells following hypoxia (PI-fluorescent stain only nucleus of damaged cardiomyocytes). Thereafter, cells were bathed with PBS twice, and the cell fluorescence was measured through excitation at 485 nm and emission at 635 nm. […]

`Cc1ccc(CN(CCN(Cc2ccc(C)cn2)Cc2ccc(C)cn2)Cc2ccc(C)cn2)nc1` [Compound #6] was tested, and the “mean arterial pressures after reperfusion” value ([1]; 0.2 mg/kg, within 5-10 minutes of reperfusion) was “increased”, the “time at which blood pressure reached peak levels post reperfusion” value ([1]; 2 mg/kg, approximately 5 minutes following completion of the infusion) was “approximately 20 minutes” and the heart rate ([1]; 0.2 and 2.0 mg/kg) was “unaffected”. For the same molecule, the “blood pressures during infusion” value ([1]; both dose levels (0.2 and 2.0 mg/kg), returned to levels comparable to vehicle animals after infusion) was “slightly elevated”, the “Troponin I (TnI) levels versus saline and vehicle control animals” value [2] was “substantially lower TnI levels than both saline and vehicle control animals; also recorded: substantially lower, but not significantly lower” and the “protection by PI staining, 100 nM versus other concentrations of the same compound” value ([3]; 100 nM) was “improve protection vs. other #6 concentrations”. For the same molecule, the “protection from hypoxic injury by PI nuclei staining compared with 1 μM TPEN, FIG. 1B” value ([3]; all concentrations 1 μM, 300 nM, 100 nM and 30 nM) was “better protection than 1 μM of TPEN”.
